Assay [1] relates to rabbit normal intraocular pressure. The assay can be described thus: Intraocular pressure reducing action. Type of assay: in vivo, Japanese white rabbit. The note with it: Oryctolagus cuniculus, topical; 3 mM aqueous solution, 50 μl to the left eye; max IOP reduction (2, 4, 6 hours) / value immediately before administration; read-out: intraocular pressure reducing degree. The gist of the method:
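Japanese white rabbits (~2 kg) under topical anaesthesia received 50 μl of a 3 mM aqueous test solution in the left eye, right eye untreated. IOP read by tonometer before and at 2, 4, 6 h; maximal left–right difference divided by pre-dose IOP ×100 gives % reduction.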

In another assay the target is T1, human ROCK1 (Homo sapiens, UniProt Q13464).
T1 construct: His tag (N); host or cells: insect cells (Sf9)
Briefly: Measurement of Rho kinase inhibitory activity (ELISA of MBS phosphorylation). The settings on record: human ROCK1, MBS substrate, 100 μM ATP, 30° C. for 10 minutes. It counts as biochemical. The essentials:
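N-terminal His-tagged human ROCK1 (1-727, Sf9-expressed) phosphorylated plate-immobilized MBS in 20 mM HEPES pH 7.5, 100 μM ATP, 30° C for 10 minutes. Phospho-MBS detected by antibody ELISA (A490); IC50 is concentration giving 50% inhibition.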

In the next assay the test system is TNF-α production. Briefly: Inhibitory effect on TNF-α production in mice (LPS). Type of assay: in vivo, BALB/c mice. The note with it: Mus musculus, 1.5 h; oral administration of 30 mg/kg, LPS 5 μg i.p. 60 minutes later, plasma after 90 minutes; read-out: TNF-α production suppressing action. How it is done:
BALB/c mice (Japan CRJ, famale) were used as experimental animals. Each test compound was dissolved in distilled water at a concentration suitable for the examination. The weight of each mouse was measured, a test compound solution was orally administered in a volume corresponding to 10 ml/kg, and only distilled water was administered to the control group. Each group consisted of five to seven animals. LPS was dissolved in physiological saline, and intraperitoneally administered to each mouse in an amount of 5 μg. The test compound was administered first, and LPS (lipopolysaccharide, Sigma) was administered 60 minutes later. After 90 minutes, blood was collected from the abdominal large vein in the presence of heparin, and plasma was obtained by centrifugation. TNF-α content in the plasma was measured by using the ELISA method.

T1 sequence (Q13464 1-727): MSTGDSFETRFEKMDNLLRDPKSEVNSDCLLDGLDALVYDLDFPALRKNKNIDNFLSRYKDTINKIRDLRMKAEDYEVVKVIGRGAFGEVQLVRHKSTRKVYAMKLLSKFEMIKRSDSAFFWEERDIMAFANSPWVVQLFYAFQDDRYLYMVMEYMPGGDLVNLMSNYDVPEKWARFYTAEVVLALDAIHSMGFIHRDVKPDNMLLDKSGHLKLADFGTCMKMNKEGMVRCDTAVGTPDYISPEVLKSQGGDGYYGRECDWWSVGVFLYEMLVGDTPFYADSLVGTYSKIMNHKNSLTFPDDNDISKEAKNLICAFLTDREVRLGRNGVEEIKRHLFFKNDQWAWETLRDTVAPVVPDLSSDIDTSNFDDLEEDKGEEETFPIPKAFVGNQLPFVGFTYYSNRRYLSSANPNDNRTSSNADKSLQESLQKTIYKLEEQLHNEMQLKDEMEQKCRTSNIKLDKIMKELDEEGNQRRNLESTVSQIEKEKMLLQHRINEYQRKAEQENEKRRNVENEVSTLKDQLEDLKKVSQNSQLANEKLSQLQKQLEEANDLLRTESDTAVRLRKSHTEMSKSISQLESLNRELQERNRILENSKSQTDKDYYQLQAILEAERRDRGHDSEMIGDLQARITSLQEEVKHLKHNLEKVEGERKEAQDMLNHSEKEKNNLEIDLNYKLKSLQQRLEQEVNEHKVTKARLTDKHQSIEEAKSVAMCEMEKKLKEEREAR

Consider `COCC(=O)N[C@H]1CCN(S(=O)(=O)c2cccc3cncc(Cl)c23)C1` [Example 56-1, (S)-3-(2-Methoxyacetyl)amino-1-(4-chloro-5-isoquinolinesulfonyl)pyrrolidine], for which, in assay [1], the inhibition in vivo at 3000 µM is at least 20%. The IC50 – broadly, the concentration needed to halve the response being measured – against human ROCK1 lay in the range of 1000 to 3000 nM. Moreover, the inhibition in vivo at 30 mg/kg with TNF-α production is at least 30%.
As for `C#Cc1cncc2cccc(S(=O)(=O)N3CC[C@H](N)C3)c12` [Example 10-1, (S)-3-Amino-1-(4-ethynyl-5-isoquinolinesulfonyl)pyrrolidine], the inhibition in vivo at 3000 µM in assay [1] was at least 20%. Also, on human ROCK1, the IC50 is under 1000 nM. Also, the inhibition in vivo at 30 mg/kg with TNF-α production is at least 50%.
As to `Cc1ccc(CN[C@H]2CCN(S(=O)(=O)c3cccc4cncc(C)c34)C2)cc1` [Example 8-12], in assay [1], the inhibition in vivo at 3000 µM was at least 20%. Besides, the IC50 against human ROCK1 was under 1000 nM. Further, the inhibition in vivo at 30 mg/kg with TNF-α production was at least 50%.
On to `N[C@H]1CCN(S(=O)(=O)c2cccc3cncc(C4CC4)c23)C1` [Example 11-1, (S)-3-Amino-1-(4-cyclopropyl-5-isoquinolinesulfonyl)pyrrolidine], for which, in assay [1], the inhibition in vivo at 3000 µM was in the range of 5 to 10%. This compound also had an IC50 against human ROCK1 of under 1000 nM. In addition, the inhibition in vivo at 30 mg/kg in the assay with TNF-α production was at least 30%.
For `Cc1ccc(CN[C@H]2CCN(S(=O)(=O)c3cccc4cncc(Br)c34)C2)cc1` [Example 1-12], the IC50 on human ROCK1 was under 1000 nM. In addition, the inhibition in vivo at 30 mg/kg in the assay on TNF-α production was at least 30%.
On to `COCC(=O)N[C@H]1CCN(S(=O)(=O)c2cccc3cncc(Br)c23)C1` [Example 71, (S)-3-(2-Methoxyacetyl)amino-1-(4-bromo-5-isoquinolinesulfonyl)pyrrolidine], for which the inhibition in vivo at 3000 µM in assay [1] is at least 20%. In addition, the inhibition in vivo at 30 mg/kg in the assay with TNF-α production is at least 30%.
Regarding `CN[C@H]1CCN(S(=O)(=O)c2cccc3c(O)ncc(F)c23)C1` [Example 37-1, (S)-1-(1-Hydroxy-4-fluoro-5-isoquinolinesulfonyl)-3-(methylamino)pyrrolidine], the inhibition in vivo at 30 mg/kg in the assay on TNF-α production is at least 30%.
For the compound `CN[C@H]1CCN(S(=O)(=O)c2cccc3cncc(F)c23)C1` [Example 18-3, (S)-1-(4-Fluoro-5-isoquinolinesulfonyl)-3-(methylamino)pyrrolidine], in assay [1], the inhibition in vivo at 3000 µM was at least 20%. In addition, in the assay with TNF-α production, the inhibition in vivo at 30 mg/kg was at least 50%.
On to `N[C@H]1CCCN(S(=O)(=O)c2cccc3cncc(Br)c23)C1` [Example 2-1, (S)-3-Amino-1-(4-bromo-5-isoquinolinesulfonyl)piperidine], for which the inhibition in vivo at 30 mg/kg with TNF-α production is at least 50%.
As to `Cc1cncc2cccc(S(=O)(=O)N3CC[C@H](NCCCNC(=O)Nc4ccccc4)C3)c12` [Example 65-1, (S)—N-[3-[1-(4-Methyl-5-isoquinolinesulfonyl)pyrrolidin-3-yl]aminopropyl],N′-phenylurea], the inhibition in vivo at 3000 µM in assay [1] lay within 10 to 20%. Moreover, the IC50 against human ROCK1 was under 1000 nM.
For `CC(N)C1CCN(S(=O)(=O)c2cccc3cncc(Cl)c23)CC1` (stereo not shown) [Example 53], the inhibition in vivo at 3000 µM in assay [1] lay within 10 to 20%. This compound also displayed an IC50 at human ROCK1 of under 1000 nM.
The corresponding values for `NCCCN[C@H]1CCN(S(=O)(=O)c2cccc3cncc(Cl)c23)C1` [Example 62-1, (S)-3-(3-Aminopropyl)amino-1-(4-chloro-5-isoquinolinesulfonyl)pyrrolidine] are 10 to 20% and 1000 to 3000 nM.
Take `Cc1cncc2cccc(S(=O)(=O)N3CC[C@H](NC4CCCCC4)C3)c12` [Example 8-30]: the inhibition in vivo at 3000 µM in assay [1] is 5 to 10%. For the same compound, at human ROCK1, the concentration for half-maximal inhibition (IC50) was 1000 to 3000 nM.
Take `Cc1cncc2cccc(S(=O)(=O)N3CC[C@H](NC4CCC4)C3)c12` [Example 8-28]: in assay [1], the inhibition in vivo at 3000 µM lay within 5 to 10%. The IC50 at human ROCK1 was under 1000 nM.
As for `N[C@H]1CCCN(S(=O)(=O)c2cccc3cncc(Cl)c23)C1` [Example 21-1, (S)-3-Amino-1-(4-chloro-5-isoquinolinesulfonyl)piperidine], the inhibition in vivo at 3000 µM in assay [1] is at least 20%. The compound also displayed an IC50 on human ROCK1 of 1000 to 3000 nM.
The corresponding values for `C=CCN[C@H]1CCN(S(=O)(=O)c2cccc3cncc(C)c23)C1` [Example 8-34] are 5 to 10% and under 1000 nM.

These data come from patent US7964613B2 (Asahi Kasei Pharma Corporation, priority 2007, dated 2011).
